This note sets out measurements from paper PMC12191924, “A new naphthalene-based fluorogenic substrate for cytochrome P450 4A11” (Biochemical Journal, 2025).

Where “and” joins values, the source holds several entries; their conditions need not be identical. Equal values may be shown once.

For one series, the target named is T1, CYP2C8 (Homo sapiens, UniProt P10632).
T1 construct: purchased Gentest (Huntsville, AL), now a part of Discovery Life Sciences lot 81760; host or cells: insect cells, recombinant baculovirus
T1 sequence (P10632 1-490): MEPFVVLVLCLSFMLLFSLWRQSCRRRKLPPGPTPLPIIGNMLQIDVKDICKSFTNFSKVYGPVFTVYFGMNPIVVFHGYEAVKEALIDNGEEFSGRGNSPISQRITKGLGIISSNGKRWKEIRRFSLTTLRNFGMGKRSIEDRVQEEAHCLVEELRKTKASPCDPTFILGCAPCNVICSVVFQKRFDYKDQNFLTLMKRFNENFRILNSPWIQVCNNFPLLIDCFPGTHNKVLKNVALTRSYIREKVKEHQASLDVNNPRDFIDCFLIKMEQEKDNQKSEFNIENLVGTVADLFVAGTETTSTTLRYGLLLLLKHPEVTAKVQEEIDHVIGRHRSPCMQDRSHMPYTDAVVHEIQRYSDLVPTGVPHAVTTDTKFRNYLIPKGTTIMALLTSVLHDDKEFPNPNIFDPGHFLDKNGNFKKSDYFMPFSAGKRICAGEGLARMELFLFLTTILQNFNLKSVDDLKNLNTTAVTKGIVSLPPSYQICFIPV
Briefly: MONACRA demethylation by recombinant CYP2C8 in Supersomes, high-throughput fluorimetric assay. It counts as biochemical. As to the method:
(§1) Based on these observations, we developed a high-throughput automated assay applicable for studying SSPs of MONACRA metabolism by microsomal P450 enzymes. In this procedure, the incubation mixtures containing an NADPH-generating system and various substrate concentrations are placed in a multiwell plate and preincubated at 30°C in a thermostated shaker. The reaction is started by adding microsomal suspension to the final concentration of 0.3–1 mg/ml of microsomal protein or 0.02–0.1 µM of recombinant P450 enzymes in Supersomes. Following the incubation for 20 min at 30°C, the reaction is quenched by adding trichloroacetic acid (final concentration […]). After supplementing the wells with Na-glycine buffer (pH 10.4, final concentration 2.1 M), the plates are subjected to scanning the fluorescence spectra with excitation at 375 nm. This assay, which is described in detail in Materials and Methods, allows reliable detection of the concentrations of HONACRA as low as 0.1 µM.
(§2) We used the high-throughput activity assay described above to probe MONACRA metabolism by 16 human microsomal P450 enzymes, namely CYP1A2, CYP2A6, CYP2B6, CYP2C8, CYP2C9, CYP2C19, CYP2D6, CYP2E1, CYP2J2, CYP3A4, CYP3A5, CYP4A11, CYP4F2, CYP4F3A, CYP4F3B, and CYP4F12. […]

The target of the next series is T2, CYP1A2 (Homo sapiens, UniProt P05177).
T2 sequence (P05177 2-516 limits assumed): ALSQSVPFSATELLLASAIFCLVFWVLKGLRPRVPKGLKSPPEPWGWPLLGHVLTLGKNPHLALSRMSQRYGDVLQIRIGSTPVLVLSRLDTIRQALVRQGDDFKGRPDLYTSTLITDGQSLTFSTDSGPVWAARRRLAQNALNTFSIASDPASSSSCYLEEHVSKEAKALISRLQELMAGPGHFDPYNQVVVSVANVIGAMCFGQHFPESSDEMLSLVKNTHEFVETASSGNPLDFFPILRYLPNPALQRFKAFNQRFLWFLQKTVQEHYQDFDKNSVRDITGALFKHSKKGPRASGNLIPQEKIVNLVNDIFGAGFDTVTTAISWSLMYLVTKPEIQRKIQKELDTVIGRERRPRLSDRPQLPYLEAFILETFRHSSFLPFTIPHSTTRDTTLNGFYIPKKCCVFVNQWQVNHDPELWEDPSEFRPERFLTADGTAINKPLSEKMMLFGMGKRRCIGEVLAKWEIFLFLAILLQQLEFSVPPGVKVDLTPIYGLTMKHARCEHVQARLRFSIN
Briefly: MONACRA demethylation by recombinant CYP1A2 in Supersomes, high-throughput fluorimetric assay. It counts as biochemical. The arrangement: purchased Gentest (Supersomes), now a part of Discovery Life Sciences; CYP1A2 is not in the lot list; host or cells: insect cells, recombinant baculovirus. As to the method:
as §1, §2

For `COc1ccc2cc(C=CC(=O)O)ccc2c1` [MONACRA, 3-(6-methoxynaphthalen-2-yl)acrylic acid], the “rate of MONACRA metabolism by CYP2C8” value at CYP2C8 is “negligibly small”. Moreover, on CYP1A2 (substrate inhibition equation), the Vmax worked out at 43.7 ± 5.9 min⁻¹. Also, at CYP1A2 (substrate inhibition equation (eqn 2)), the “Ksi (substrate inhibition constant)” value was 650 ± 200 µM and 648 ± 197 µM.
